ChEMBL document CHEMBL1201862, “PubChem BioAssay data set” (2004)
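96-well plates; 48 h exposure; 5 concentrations. Endpoints by linear interpolation between flanking doses. Not reached: highest tested concentration assigned. The concentration for 50% growth inhibition is given as GI50.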 The source made the active and inactive calls. No stated cut-off is given here; in the data, active = GI50 up to about 1.1 µM and inactive = higher.

What was measured:
Test in all cases: inhibition of tumour cell growth, NCI panel, 48 h
[1] = tested on: 786-0
[2] = tested on: A498
[3] = tested on: A549
[4] = tested on: ACHN
[5] = tested on: BT-549
[6] = tested on: CAKI-1
[7] = tested on: CCRF-CEM
[8] = tested on: COLO 205
[9] = tested on: DU-145
[10] = tested on: EKVX
[11] = tested on: HCT-116
[12] = tested on: HCT-15
[13] = tested on: HL-60
[14] = tested on: HOP-62
[15] = tested on: HOP-92
[16] = tested on: HT-29
[17] = tested on: Hs-578T
[18] = tested on: IGROV-1
[19] = tested on: K562
[20] = tested on: KM12
[21] = tested on: LOX IMVI
[22] = tested on: M14
[23] = tested on: MCF7
[24] = tested on: MDA-MB-435
[25] = tested on: MDA-N
[26] = tested on: MOLT-4
[27] = tested on: Malme-3M
[28] = tested on: NCI-H226
[29] = tested on: NCI-H23
[30] = tested on: NCI-H460
[31] = tested on: NCI-H522
[32] = tested on: NCI/ADR-RES
[33] = tested on: OVCAR-3
[34] = tested on: OVCAR-4
[35] = tested on: OVCAR-5
[36] = tested on: OVCAR-8
[37] = tested on: PC-3
[38] = tested on: RPMI-8226
[39] = tested on: SF-268
[40] = tested on: SF-295
[41] = tested on: SF-539
[42] = tested on: SK-MEL-2
[43] = tested on: SK-MEL-5
[44] = tested on: SK-OV-3
[45] = tested on: SN12C
[46] = tested on: SNB-19
[47] = tested on: SR
[48] = tested on: SW-620
[49] = tested on: T47D
[50] = tested on: TK-10
[51] = tested on: U-251
[52] = tested on: UACC-257
[53] = tested on: UACC-62
[54] = tested on: UO-31
[55] = tested on: HCC 2998
[56] = tested on: RXF 393
[57] = tested on: SK-MEL-28
[58] = tested on: SNB-75
[59] = tested on: MDA-MB-231

O=c1c2cc(S(=O)(=O)O)ccc2nc(COc2ccc(Oc3ccc(Cl)cc3Cl)cc2)n1-c1ccc(Cl)cc1Oc1c(Cl)cccc1Cl
GI50 [1]: 24.7 µM (inactive) | GI50 [2]: 25.3 µM (inactive) | GI50 [3]: 23.7 µM (inactive) | GI50 [4]: 25.1 µM (inactive) | GI50 [5]: 21.9 µM (inactive) | GI50 [6]: 30.3 µM (inactive) | GI50 [7]: 30.9 µM (inactive) | GI50 [8]: 17.5 µM (inactive) | GI50 [9]: 38 µM (inactive) | GI50 [10]: 15.6 µM (inactive) | GI50 [11]: 24.8 µM (inactive) | GI50 [12]: 21 µM | GI50 [13]: 47.1 µM (inactive) | GI50 [14]: 33.7 µM (inactive) | GI50 [15]: 15.7 µM (inactive) | GI50 [16]: 20 µM (inactive) | GI50 [17]: 26.1 µM (inactive) | GI50 [18]: 33 µM (inactive) | GI50 [19]: 43.2 µM (inactive) | GI50 [20]: 35 µM (inactive) | GI50 [21]: 17.5 µM (inactive) | GI50 [22]: 21.9 µM (inactive) | GI50 [23]: 21.2 µM (inactive) | GI50 [24]: 25.6 µM (inactive) | GI50 [25]: 30.1 µM (inactive) | GI50 [26]: 36 µM (inactive) | GI50 [27]: 36.5 µM (inactive) | GI50 [28]: 20.6 µM (inactive) | GI50 [29]: 24.2 µM (inactive) | GI50 [30]: 19.5 µM (inactive) | GI50 [31]: 20.7 µM (inactive) | GI50 [32]: 23.9 µM (inactive) | GI50 [33]: 23.7 µM (inactive) | GI50 [34]: 29.4 µM (inactive) | GI50 [35]: 23.6 µM (inactive) | GI50 [36]: 23.3 µM (inactive) | GI50 [37]: 36.4 µM (inactive) | GI50 [38]: 21.2 µM (inactive) | GI50 [39]: 15.3 µM (inactive) | GI50 [40]: 21.8 µM (inactive) | GI50 [41]: 16.5 µM (inactive) | GI50 [42]: 18.6 µM (inactive) | GI50 [43]: 17 µM (inactive) | GI50 [44]: 25.2 µM (inactive) | GI50 [45]: 30.1 µM (inactive) | GI50 [46]: 40.9 µM (inactive) | GI50 [47]: 34 µM (inactive) | GI50 [48]: 23.3 µM (inactive) | GI50 [49]: 46.1 µM (inactive) | GI50 [50]: 29.4 µM (inactive) | GI50 [51]: 18.3 µM (inactive) | GI50 [52]: 30.5 µM (inactive) | GI50 [53]: 20.1 µM (inactive) | GI50 [54]: 18.3 µM (inactive)

C=CCn1c(-c2ccc(Cl)cc2)cs/c1=N\c1ccccc1OC
GI50 [1]: > 100 µM (inactive) | GI50 [2]: > 100 µM (inactive) | GI50 [3]: 33 µM (inactive) | GI50 [4]: > 100 µM (inactive) | GI50 [5]: > 52.5 µM (inactive) | GI50 [6]: > 45.2 µM (inactive) | GI50 [7]: 8.55 µM (inactive) | GI50 [8]: 35.8 µM (inactive) | GI50 [9]: > 100 µM (inactive) | GI50 [55]: > 100 µM (inactive) | GI50 [11]: 9.31 µM (inactive) | GI50 [12]: 50 µM | GI50 [13]: 14.9 µM (inactive) | GI50 [14]: 48.9 µM (inactive) | GI50 [15]: > 65 µM (inactive) | GI50 [17]: > 100 µM (inactive) | GI50 [18]: > 100 µM (inactive) | GI50 [19]: 3.44 µM (inactive) | GI50 [20]: 15.8 µM (inactive) | GI50 [21]: 41.1 µM (inactive) | GI50 [22]: 10.1 µM (inactive) | GI50 [23]: 27.4 µM (inactive) | GI50 [24]: 5.06 µM (inactive) | GI50 [25]: 2.1 µM (inactive) | GI50 [26]: 0.179 µM (active) | GI50 [27]: 31.1 µM (inactive) | GI50 [28]: > 64.7 µM (inactive) | GI50 [29]: 7.67 µM (inactive) | GI50 [30]: 36 µM (inactive) | GI50 [32]: 6.5 µM (inactive) | GI50 [33]: 40.8 µM (inactive) | GI50 [34]: > 58.5 µM (inactive) | GI50 [35]: > 59.3 µM (inactive) | GI50 [36]: 27 µM (inactive) | GI50 [37]: 32.7 µM (inactive) | GI50 [38]: 5.6 µM (inactive) | GI50 [56]: > 100 µM (inactive) | GI50 [39]: > 100 µM (inactive) | GI50 [40]: 16.6 µM (inactive) | GI50 [41]: > 76.7 µM (inactive) | GI50 [57]: > 47.2 µM (inactive) | GI50 [42]: > 74.3 µM (inactive) | GI50 [43]: 2.31 µM (inactive) | GI50 [44]: > 45.2 µM (inactive) | GI50 [45]: > 100 µM (inactive) | GI50 [46]: > 95.5 µM (inactive) | GI50 [58]: > 33.3 µM (inactive) | GI50 [47]: 0.195 µM (active) | GI50 [48]: 60 µM (inactive) | GI50 [49]: 2.34 µM (inactive) | GI50 [50]: > 100 µM (inactive) | GI50 [51]: > 69.5 µM (inactive) | GI50 [52]: 7.46 µM (inactive) | GI50 [53]: 10.1 µM (inactive) | GI50 [54]: > 100 µM (inactive)

COC(=O)c1cc(C)ccc1/C=C1\Cc2cc(C)c(C)cc2C1=O
GI50 [1]: 55.8 µM (inactive) | GI50 [2]: 68.9 µM (inactive) | GI50 [3]: > 100 µM (inactive) | GI50 [4]: > 100 µM (inactive) | GI50 [5]: > 100 µM (inactive) | GI50 [6]: > 100 µM (inactive) | GI50 [7]: 0.108 µM (active) | GI50 [9]: > 100 µM (inactive) | GI50 [10]: > 100 µM (inactive) | GI50 [55]: > 100 µM (inactive) | GI50 [11]: > 100 µM (inactive) | GI50 [12]: > 100 µM | GI50 [13]: > 100 µM (inactive) | GI50 [14]: 39 µM (inactive) | GI50 [15]: 36.2 µM (inactive) | GI50 [16]: > 100 µM (inactive) | GI50 [17]: 38.8 µM (inactive) | GI50 [18]: > 100 µM (inactive) | GI50 [19]: 89.3 µM (inactive) | GI50 [20]: > 100 µM (inactive) | GI50 [21]: > 100 µM (inactive) | GI50 [22]: > 100 µM (inactive) | GI50 [59]: > 100 µM (inactive) | GI50 [25]: > 100 µM (inactive) | GI50 [26]: 33.1 µM (inactive) | GI50 [27]: > 100 µM (inactive) | GI50 [28]: > 100 µM (inactive) | GI50 [29]: > 100 µM (inactive) | GI50 [30]: > 100 µM (inactive) | GI50 [31]: > 100 µM (inactive) | GI50 [33]: 51.1 µM (inactive) | GI50 [34]: > 100 µM (inactive) | GI50 [35]: > 100 µM (inactive) | GI50 [36]: > 100 µM (inactive) | GI50 [37]: > 100 µM (inactive) | GI50 [38]: > 100 µM (inactive) | GI50 [56]: 50.5 µM (inactive) | GI50 [39]: 41.1 µM (inactive) | GI50 [40]: 38.7 µM (inactive) | GI50 [41]: > 100 µM (inactive) | GI50 [57]: > 100 µM (inactive) | GI50 [42]: 60.3 µM (inactive) | GI50 [43]: > 100 µM (inactive) | GI50 [45]: > 100 µM (inactive) | GI50 [46]: 29.9 µM (inactive) | GI50 [58]: 17.5 µM (inactive) | GI50 [47]: > 100 µM (inactive) | GI50 [48]: > 100 µM (inactive) | GI50 [49]: > 100 µM (inactive) | GI50 [50]: > 100 µM (inactive) | GI50 [52]: > 100 µM (inactive) | GI50 [53]: 27.8 µM (inactive) | GI50 [54]: > 100 µM (inactive)
